{"source": "patent US20150231090A1", "about": "(Hong Kong Baptist University, priority 2013, published 2015)", "test": "Toxicity of Guttiferone K in vivo", "design": "species or system BALB/c male mice", "settings": "1, 3, 10 mg/kg i.p. for 28 days"}
{"smiles": "CC(C)=CCC[C@@]1(C)[C@H](CC=C(C)C)C[C@]2(CC=C(C)C)C(=O)[C@@]1(CC=C(C)C)C(=O)C(C(=O)c1ccc(O)c(O)c1)=C2O", "note": "[Guttiferone K]", "values": [{"measurement": "organ size and cell morphology of target organs (brain, heart, lung, liver, spleen, kidney)", "result": "no evidence of organ size and cell morphology of target organs"}]}
